Test results as given in patent US20220073883A1, “COMPOSITIONS AND METHODS FOR GENERATION OF HEART FIELD-SPECIFIC PROGENITOR CELLS” (The Johns Hopkins University, priority 2018, published 2022).

Tests used:
Type in all cases: cell-based, mouse
[1] = tested on: ESC-derived cardiac spheroids; assay: qPCR of FHF (tbx5, hcn4) and SHF (tbx1, fgf10) markers in treated spheroids; details: Bmp4 (1.25 ng/ml) alone
Description: To investigate the crosstalk between Bmp and Wnt signals, the spheroids were treated with Bmp4 and Wnts in combinations and analyzed expression levels of FHF (tbx5, hcn4) and SHF (tbx1, fgf10) markers.
(§1) Mouse ESCs and human iPSCs were maintained and differentiated as previously described^5, 43, 68 Briefly, mESCs were maintained on gelatin-coated dishes in maintenance medium (Glasgow minimum essential medium supplemented with 10% fetal bovine serum and […] Chir99021 and 1 μM PD98059 or 1000 U/ml ESGRO (Millipore, Billerica, Mass.), Glutamax, sodium pyruvate, MEM non-essential amino acids (Thermo Fisher Scientific). For spheroid formation and differentiation, mouse ESCs were plated in IMDM/Ham's F12 (Cellgro) (3:1) supplemented with N2, B27, penicillin/streptomycin, 2 mM GlutaMAX, 0.05% BSA, 5 ng/ml L-ascorbic acid (Sigma-Aldrich) and α-monothioglycerol (MTG; Sigma-Aldrich) at a final density of 100,000 cells/ml to allow spheroid formation. After 48 h spheroids were collected and transferred to ultra-low attachment plastic surface and induced for 40 hours with Activin A, Bmp4, Wnt3A, Wnt5A, Wnt11 (R&D Systems) alone or in combination. Human iPSCs were maintained in Geltrex-coated T25 flasks using Essential 8 medium. For spheroid formation and differentiation, hiPSCs were plated in RPMI plus B27 minus insulin with Bmp4 and CHIR99021 and incubated for 48 h. After 48 h media was changed to RPMI plus B27 minus insulin. The hiPSC line used in this study was developed by Dr. Linzhao Cheng, the Johns Hopkins University, and had was generated from a de-identified patient using an approved IRB protocol.
RNA isolation was performed using either RNeasy Micro Kit (Cat #74004, Qiagen) or […]® PicoPure® RNA Isolation Kit following the manufacturer's instructions, and cDNA was generated using the high-capacity cDNA reverse transcription kit (Applied Biosystems). qPCR reactions were performed using the Taqman (Applied Biosystems) or Sybr Select qPCR mix (Thermo Fisher) with indicated primers. Gene expression levels were normalized to Gapdh. For the clonal cell-fate analysis, single Isl1-Cre RFP+, Cxcr4− and Isl1-Cre RFP^+, Cxcr4^+ cells were sorted at day 5.5 into 384-well plates and allowed to grow and differentiate for 7 days. […] RNA was isolated from 24 wells with colonies from Cxcr4− and Cxcr4+ sorted cells, respectively. Ct values<30 were considered positive. All samples were also analyzed for gapdh to exclude false-positive results.

[2] = tested on: ESC-derived cardiac spheroids; assay: cardiogenesis: cTnT+ cardiomyocytes in cardiac spheroids at day 9 (flow cytometry)
Text: Next, an embryonic stem cell (ESC) line (ESCHcn4-GFP; Tbx1-Cre Ai9) was established from the mice to determine if heart field specification can be recapitulated in a PSC system. It was hypothesized that a 3D multicellular system would better resemble heart field development in vivo, as early development is a highly dynamic process that involves tissue-tissue interactions between multiple cell types. Since CPCs are specified during mid-late gastrulation 7, 8, multicellular 3D spheroids were generated with the PSCs and treated them with various concentrations of Activin A and Bmp4 to determine whether induction of the early mesoderm influences heart field specification (FIGS. 1C and 1D). After 5 days of differentiation (120 h), GFP+ and RFP+ cells started to appear in the spheroids. The spheroids were analyzed for GFP+ and RFP+ cells by fluorescent activated cell sorting (FACS) at day 5.5 (132 h). […] The double positive GFP+/RFP+ cells correlated with the total number of GFP+ and RFP+ cells (FIG. 6J) and were sporadically interspersed within the GFP+ domain (FIG. 6K).
The overall effects on cardiogenesis were evaluated by analyzing the number of cardiomyocytes at day 9 (FIG. 6L).
as §1, with “After 48 h media was changed to RPMI plus B27 minus insulin. The hiPSC line used in this study was developed by Dr. Linzhao Cheng, the Johns Hopkins University, and had was generated from a de-identified patient using an approved IRB protocol.” left out
Mouse embryos (E7.75) were dissected using forceps under a stereomicroscope (Zeiss) and regions of interest were dissociated and harvested using TrypLE. […] Single-cells were analyzed for RFP/GFP expression or sorted using a SH800 Cell sorter (Sony Biotechnologies). Live cells were analyzed for RFP and GFP expression and stained with antibodies targeting for the presence of appropriate markers. […] Data was analyzed using FlowJo software.

[3] = tested on: ESC-derived cardiac spheroids (Hcn4-GFP; Tbx1-Cre; Ai9); assay: heart field specification: Hcn4-GFP+ and Tbx1-Cre, RFP+ CPCs in cardiac spheroids by FACS at day 5.5; details: increasing levels of the factor; day 5.5
Text: Next, an embryonic stem cell (ESC) line (ESCHcn4-GFP; Tbx1-Cre Ai9) was established from the mice to determine if heart field specification can be recapitulated in a PSC system. It was hypothesized that a 3D multicellular system would better resemble heart field development in vivo, as early development is a highly dynamic process that involves tissue-tissue interactions between multiple cell types. Since CPCs are specified during mid-late gastrulation 7, 8, multicellular 3D spheroids were generated with the PSCs and treated them with various concentrations of Activin A and Bmp4 to determine whether induction of the early mesoderm influences heart field specification (FIGS. 1C and 1D).
IPA utilizes an input gene list and a curated database of literature-derived pathways to infer which canonical pathways are most significant to the input data set. The analysis was focused on pathways related to ‘organism growth and development’. […] The effect of Bmp signals was evaluated during heart field specification. In order to minimize the possibility of influencing heart field cells after induction, all of the data were analyzed within 12 hs after the appearance of GFP^+/RFP^+ cells.
as §1
Mouse embryos (E7.75) were dissected using forceps under a stereomicroscope (Zeiss) and regions of interest were dissociated and harvested using TrypLE. Embryoid bodies (EBs) and cells were dissociated and harvested using TrypLE. Single-cells were analyzed for RFP/GFP expression or sorted using a SH800 Cell sorter (Sony Biotechnologies). Live cells were analyzed for RFP and GFP expression and stained with antibodies targeting for the presence of appropriate markers. […] Data was analyzed using FlowJo software.

canonical Wnt activity = assay: Topflash luciferase assay; details: Bmp4 (1.25 ng/ml) alone; 88 h of differentiation
Description: To test this, canonical Wnt activity was measured with its readout Topflash.
For Tbx1 and Tbx5 knockdown experiments, Tbx1 and Tbx5 ON-TARGETplus SMARTpool siRNA or scrambled siRNA (Dharmacon/Thermo Fisher Scientic) was used at 5 nM for cell transfection. Cells were transfected with Lipofectamine LTX (Life Technologies) in single-cell suspensions. For TOP-flash luciferase assays, mESCs were transfected with Topflash constructs and Renilla constructs and analyzed as previously described 5.

topflash activity (canonical Wnt activity): increased
Substance: Bmp4: bone morphogenic protein (Bmp) 4, R&D Systems
expression of FHF markers (tbx5, hcn4) [1]: increased expression
expression of SHF markers (tbx1, fgf10) [1]: increased expression
number of cTnT+ cardiomyocytes ([2]; 1.25 ng/ml Bmp4, day 9): > 30%
difference in number of cTnT+ cardiomyocytes compared to 0.5 ng/ml Bmp4 ([2]; 1.25 ng/ml vs 0.5 ng/ml Bmp4, day 9): > 10 fold
effect on cardiogenesis ([2]; varying/increasing concentrations, cTnT+ at day 9): profound effect
induction of GFP+ cells (FHF) [3]: promoted induction
induction of RFP+ cells (SHF) [3]: promoted induction
